Tests used:
[1] = target: human P2Y12 receptor (Homo sapiens, UniProt Q9H244); assay: Human P2Y12 recombinant cell membrane binding assay with 33P 2MeS-ADP; settings: competition against 33P 2MeS-ADP, membranes of CHO cells with recombinant human P2Y12 receptor
Summary of the method: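 CHO membranes expressing human P2Y12 (20 μg/ml stock) preincubated 15 min at RT with compound in HEPES pH 7.4 buffer, then 33P 2MeS-ADP (1.61 nM working solution) added for 20 min at RT. Bound label filtered and counted; four-point, five-fold series from 10 μM final, triplicate, four-parameter fit.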

[2] = test system: human platelet rich plasma; assay: Inhibition of human platelet aggregation, 96-well assay; type: cell-based; settings: Homo sapiens, Platelet, 20 min
Summary of the method: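 ADP-induced aggregation read as 650 nm absorbance every minute for 20 min at 37 °C, with shaking between reads. PRP (~3×E8 platelets/ml, diluted with PPP, ACD-A blood from healthy volunteers) was exposed to compound for 5 min before adding a 40 μM ADP stock (15 μl into 150 μl).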

[3] = test system: human platelet rich plasma; assay: Inhibition of human platelet aggregation, "Born"-method using single cuvettes; type: cell-based; settings: 0.1 h, ADP-induced aggregation, 6 minutes

Chain of human P2Y12 receptor (Q9H244 whole entry): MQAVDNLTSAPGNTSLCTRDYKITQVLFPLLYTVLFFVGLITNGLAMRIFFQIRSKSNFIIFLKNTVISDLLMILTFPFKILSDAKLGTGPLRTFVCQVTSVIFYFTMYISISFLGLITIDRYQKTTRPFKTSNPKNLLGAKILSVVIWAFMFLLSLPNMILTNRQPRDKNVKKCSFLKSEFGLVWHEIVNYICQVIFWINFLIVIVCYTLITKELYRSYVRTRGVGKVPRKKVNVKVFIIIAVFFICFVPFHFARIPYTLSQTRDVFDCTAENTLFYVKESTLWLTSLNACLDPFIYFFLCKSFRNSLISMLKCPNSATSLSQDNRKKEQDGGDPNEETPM

| Compound | IC50 [1] | IC50 [2] | IC50 [3] |
| --- | --- | --- | --- |
| CCOC(=O)N1CCN(C(=O)[C@H](CCO)NC(=O)c2cc(OCC(=O)N3CCC[C@H]3C(=O)NC3CCC3)n(-c3ccccc3)n2)CC1 [Example 115, 4-[(S)-2-({5-[2-((S)-2-Cyclobutylcarbamoyl-pyrrolidin-1-yl)-2-oxo-ethoxy]-1-phenyl-1H-pyrazole-3-carbonyl}-amino)-4-hydroxy-butyryl]-piperazine-1-carboxylic acid ethyl ester] | 59 nM | 210 nM | 120 nM |
| O=C(O)CC[C@H](NC(=O)c1cc(OCC(=O)N2CCC[C@H]2C(=O)NC2CCC2)n(-c2ccccc2)n1)C(=O)N1CCC(C(=O)c2cccc(Cl)c2)CC1 [Example 103, (S)-5-[4-(3-Chloro-benzoyl)-piperidin-1-yl]-4-({5-[2-((S)-2-cyclobutylcarbamoyl-pyrrolidin-1-yl)-2-oxo-ethoxy]-1-phenyl-1H-pyrazole-3-carbonyl}-amino)-5-oxo-pentanoic acid] | 127 nM | 560 nM | 120 nM |
| CCOC(=O)N1CCN(C(=O)[C@H](CCC(=O)O)NC(=O)c2cc(OCC(=O)N3CCC[C@H]3C(=O)NCC(F)F)n(-c3ccccc3)n2)CC1 [Example 15, 4-{(S)-4-Carboxy-2-[(5-{2-[(S)-2-(2,2-difluoro-ethylcarbamoyl)-pyrrolidin-1-yl]-2-oxo-ethoxy}-1-phenyl-1H-pyrazole-3-carbonyl)-amino]-butyryl}-piperazine-1-carboxylic acid ethyl ester] | 164 nM | 130 nM | 120 nM |
| CCCCOC(=O)N1CCN(C(=O)[C@H](COCC)NC(=O)c2cc(OCC(=O)N3CCC[C@H]3C(=O)NC3CCC3)n(-c3ccccc3)n2)CC1 [Example 227, 4-[(S)-2-({5-[2-((S)-2-Cyclobutylcarbamoyl-pyrrolidin-1-yl)-2-oxo-ethoxy]-1-phenyl-1H-pyrazole-3-carbonyl}-amino)-3-ethoxy-propionyl]-piperazine-1-carboxylic acid butyl ester] | 16 nM | 130 nM | 130 nM |
| CCCCOC(=O)N1CCN(C(=O)[C@H](CCC(=O)OCC)NC(=O)c2cc(OCC(=O)N3CCC[C@H]3C(=O)NC3CCC3)n(-c3ccccc3)n2)CC1 [Example 143, 4-[(S)-2-({5-[2-((S)-2-Cyclobutylcarbamoyl-pyrrolidin-1-yl)-2-oxo-ethoxy]-1-phenyl-1H-pyrazole-3-carbonyl}-amino)-4-ethoxycarbonyl-butyryl]-piperazine-1-carboxylic acid butyl ester] | 5 nM | 90 nM | 150 nM |
| CCCOC(=O)N1CCN(C(=O)[C@H](CCC(=O)O)NC(=O)c2cc(OCC(=O)N3CCC[C@H]3C(=O)NC3CCC3)n(-c3ccccc3)n2)CC1 [Example 162, 4-[(S)-4-Carboxy-2-({5-[2-((S)-2-cyclobutylcarbamoyl-pyrrolidin-1-yl)-2-oxo-ethoxy]-1-phenyl-1H-pyrazole-3-carbonyl}-amino)-butyryl]-piperazine-1-carboxylic acid propyl ester] | 8 nM | 20 nM | 33 nM |
| CCOC(=O)N1CCN(C(=O)[C@H](CCC(=O)O)NC(=O)c2cc(OCC(=O)N3CCC[C@H]3c3nc(C)c[nH]3)n(-c3ccccc3)n2)CC1 [Example 172, 4-{(S)-4-Carboxy-2-[(5-{2-[(S)-2-(4-methyl-1H-imidazol-2-yl)-pyrrolidin-1-yl]-2-oxo-ethoxy}-1-phenyl-1H-pyrazole-3-carbonyl)-amino]-butyryl}-piperazine-1-carboxylic acid ethyl ester] | 146 nM | 380 nM | 530 nM |
| CCOC(=O)N1CCN(C(=O)[C@H](CCC(=O)O)NC(=O)c2cc(O[C@H](C)C(=O)N3CCC[C@H]3C(=O)NC3CCC3)n(-c3ccccc3)n2)CC1 [Example 62, 4-[(S)-4-Carboxy-2-({5-[(R)-2-((S)-2-cyclobutylcarbamoyl-pyrrolidin-1-yl)-1-methyl-2-oxo-ethoxy]-1-phenyl-1H-pyrazole-3-carbonyl}-amino)-butyryl]-piperazine-1-carboxylic acid ethyl ester] | 17 nM | 130 nM | 58 nM |
| CCOC(=O)N1CCN(C(=O)[C@H](CCC(=O)O)NC(=O)c2cc(OCC(=O)N3CCC[C@H]3C(=O)NC3CCC3)n(-c3cccc(F)c3)n2)CC1 [Example 73, 4-((S)-4-Carboxy-2-{[5-[2-((S)-2-cyclobutylcarbamoyl-pyrrolidin-1-yl)-2-oxo-ethoxy]-1-(3-fluoro-phenyl)-1H-pyrazole-3-carbonyl]-amino}-butyryl)-piperazine-1-carboxylic acid ethyl ester] | 55 nM | 10 nM | 210 nM |
| CCOC(=O)N1CCN(C(=O)[C@H](CCC(=O)O)NC(=O)c2cc(OC(C)C(=O)N3CCC[C@H]3C(=O)NCC(F)(F)F)n(-c3ccccc3)n2)CC1 (stereo partly drawn) [Example 53, 4-{(S)-4-Carboxy-2-[(5-{1-methyl-2-oxo-2-[(S)-2-(2,2,2-trifluoro-ethylcarbamoyl)-pyrrolidin-1-yl]-ethoxy}-1-phenyl-1H-pyrazole-3-carbonyl)-amino]-butyryl}-piperazine-1-carboxylic acid ethyl ester] | 129 nM | 30 nM | 39 nM |
| CCCCOC(=O)N1CCN(C(=O)[C@@H](C)NC(=O)c2cc(OCC(=O)N3CCC[C@H]3C(=O)NC3CCC3)n(-c3ccccc3)n2)CC1 [Example 184, 4-[(R)-2-({5-[2-((S)-2-Cyclobutylcarbamoyl-pyrrolidin-1-yl)-2-oxo-ethoxy]-1-phenyl-1H-pyrazole-3-carbonyl}-amino)-propionyl]-piperazine-1-carboxylic acid butyl ester] | 18 nM | 280 nM | 80 nM |
| CCCOC(=O)N1CCN(C(=O)CNC(=O)c2cc(OCC(=O)N3CCC[C@H]3C(=O)NC3CCC3)n(-c3ccccc3)n2)CC1 [Example 210, 4-[2-({5-[2-((S)-2-Cyclobutylcarbamoyl-pyrrolidin-1-yl)-2-oxo-ethoxy]-1-phenyl-1H-pyrazole-3-carbonyl}-amino)-acetyl]-piperazine-1-carboxylic acid propyl ester] | 72 nM | 120 nM | 30 nM |
